Laboratory results taken from patent US8148391B2 (Cephalon, Inc., priority 2006, dated 2012).
Where two headings read alike, the source gives them in different places.

Columns and labels:
[1] = molecular target: T1, c-Met (cytoplasmic domain) (Homo sapiens, UniProt P08581); assay: c-Met Kinase Assay (same methods as for ALK, with modifications); format: biochemical
T1 construct: 10 ng/mL c-Met (cytoplasmic domain, Invitrogen Corporation #PV3143); purchased Invitrogen Corporation PV3143
Method in brief: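 Plates were coated with phospholipase C-γ substrate (10 μg/mL) in TBS, and the reaction was started with 10 ng/mL c-Met cytoplasmic domain and run 15 min at 37 °C. Phosphoproduct was detected with Eu-N1-labelled PT66 antibody. IC50 came from a variable-slope sigmoidal fit of percent inhibition vs log concentration.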

[2] = molecular target: T2, baculovirus-expressed ALK (Homo sapiens, UniProt Q9UM73); assay: ALK Kinase Assay (ELISA-type, time-resolved fluorescence); format: biochemical
T2 construct: host or cells: baculovirus expression system
Method in brief: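 Plates coated with phospholipase C-γ substrate (10 μg/mL in TBS); reaction started with 30 ng/ml ALK and run 15 min at 37° C. Phosphorylated substrate detected with Eu-N1-labeled PT66 antibody. IC50 from sigmoidal variable-slope fit of percent inhibition vs log concentration.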

[3] = 1 μM ATP (Km level), 10 ng/mL c-Met, read-out: cMet Activity (c-Met kinase inhibition, IC50 class)
[4] = 1 μM ATP (Km level), 30 ng/ml ALK, 37° C., 15 minutes, read-out: ALK Activity (ALK kinase inhibition, IC50 class)
[5] = c-Met kinase inhibition, 1 μM ATP (Km level), read-out: cMet Activity
[6] = ALK kinase inhibition, 1 μM ATP (Km level), read-out: ALK Activity
[7] = c-Met kinase inhibition, 1 μM ATP, read-out: cMet Activity
[8] = ALK kinase inhibition, 1 μM ATP, read-out: ALK Activity
[9] = 1 μM ATP (Km level), read-out: cMet Activity (c-Met Kinase Inhibition, IC50)
[10] = 1 μM ATP (Km level), read-out: ALK Activity (ALK Kinase Inhibition, IC50)

T2 sequence (Q9UM73 19-1620): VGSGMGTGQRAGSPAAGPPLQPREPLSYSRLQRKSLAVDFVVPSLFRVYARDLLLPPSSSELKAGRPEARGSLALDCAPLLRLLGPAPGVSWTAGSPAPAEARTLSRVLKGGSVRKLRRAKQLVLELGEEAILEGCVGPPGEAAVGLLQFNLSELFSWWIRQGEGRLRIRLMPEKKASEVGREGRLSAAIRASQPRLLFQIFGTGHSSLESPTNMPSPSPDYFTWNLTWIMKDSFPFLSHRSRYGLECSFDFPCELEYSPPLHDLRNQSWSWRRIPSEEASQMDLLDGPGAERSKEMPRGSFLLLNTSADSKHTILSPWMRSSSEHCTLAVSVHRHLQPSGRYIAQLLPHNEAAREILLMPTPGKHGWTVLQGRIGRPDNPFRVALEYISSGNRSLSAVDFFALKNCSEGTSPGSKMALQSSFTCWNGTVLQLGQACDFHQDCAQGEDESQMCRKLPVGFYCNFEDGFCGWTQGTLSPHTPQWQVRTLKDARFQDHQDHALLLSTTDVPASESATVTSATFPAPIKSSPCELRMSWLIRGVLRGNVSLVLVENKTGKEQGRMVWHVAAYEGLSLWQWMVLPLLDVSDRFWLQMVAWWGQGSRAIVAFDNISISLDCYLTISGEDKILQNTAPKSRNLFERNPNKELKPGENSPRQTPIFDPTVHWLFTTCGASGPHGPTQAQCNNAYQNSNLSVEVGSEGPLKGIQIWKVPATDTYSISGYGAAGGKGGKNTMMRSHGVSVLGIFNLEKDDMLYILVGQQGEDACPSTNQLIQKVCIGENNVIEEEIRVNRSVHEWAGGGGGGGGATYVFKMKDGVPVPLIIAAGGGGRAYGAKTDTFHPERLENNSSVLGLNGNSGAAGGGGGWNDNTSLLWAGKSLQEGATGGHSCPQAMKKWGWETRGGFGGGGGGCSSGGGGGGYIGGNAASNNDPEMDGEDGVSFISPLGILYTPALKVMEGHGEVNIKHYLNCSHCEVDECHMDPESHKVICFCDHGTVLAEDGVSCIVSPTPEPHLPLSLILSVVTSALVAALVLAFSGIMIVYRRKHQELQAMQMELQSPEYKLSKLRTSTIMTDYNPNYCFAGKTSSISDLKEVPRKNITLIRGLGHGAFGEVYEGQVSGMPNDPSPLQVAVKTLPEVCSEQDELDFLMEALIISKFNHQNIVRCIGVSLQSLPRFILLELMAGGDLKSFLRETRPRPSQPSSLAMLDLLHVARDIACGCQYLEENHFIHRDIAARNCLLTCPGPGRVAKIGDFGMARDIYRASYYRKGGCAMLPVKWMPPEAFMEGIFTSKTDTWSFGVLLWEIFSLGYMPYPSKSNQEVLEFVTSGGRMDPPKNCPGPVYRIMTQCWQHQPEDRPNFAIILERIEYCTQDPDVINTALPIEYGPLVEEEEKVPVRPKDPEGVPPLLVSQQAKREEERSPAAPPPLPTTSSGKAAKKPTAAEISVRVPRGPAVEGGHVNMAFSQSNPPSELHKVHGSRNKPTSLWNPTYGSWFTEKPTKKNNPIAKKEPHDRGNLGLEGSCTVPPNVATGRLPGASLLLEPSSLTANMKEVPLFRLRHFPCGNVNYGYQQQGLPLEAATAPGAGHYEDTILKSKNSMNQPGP
T1 sequence (P08581 956-1390 limits assumed): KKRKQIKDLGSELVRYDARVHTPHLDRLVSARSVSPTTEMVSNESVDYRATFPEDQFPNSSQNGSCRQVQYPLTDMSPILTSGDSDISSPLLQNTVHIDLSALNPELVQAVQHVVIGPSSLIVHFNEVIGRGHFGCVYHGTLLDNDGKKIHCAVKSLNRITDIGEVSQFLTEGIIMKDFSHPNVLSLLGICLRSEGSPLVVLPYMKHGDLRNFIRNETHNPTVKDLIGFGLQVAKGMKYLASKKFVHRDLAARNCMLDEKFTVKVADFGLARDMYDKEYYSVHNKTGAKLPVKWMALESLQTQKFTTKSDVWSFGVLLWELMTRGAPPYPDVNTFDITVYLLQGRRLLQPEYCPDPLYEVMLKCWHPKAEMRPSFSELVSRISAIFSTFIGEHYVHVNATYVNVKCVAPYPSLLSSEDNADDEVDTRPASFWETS

| SMILES | IC50 [1, 3] | IC50 [2, 4] | IC50 [1, 5] | IC50 [2, 6] | also measured |
| --- | --- | --- | --- | --- | --- |
| CCN1CCc2ccc(Nc3ncc(Cl)c(NC4CCCCNC4=O)n3)cc2CC1 (stereo not shown) [Example 166, 3-[5-Chloro-2-(3-ethyl-2,3,4,5-tetrahydro-1H-benzo[d]azepin-7-ylamino)-pyrimidin-4-ylamino]-azepan-2-one] | – | – | 1000 to 10000 nM | < 100 nM | – |
| CCN1C(=O)[C@H](NC(=O)COC)CCc2c1ccc(Nc1ncc(Cl)c(N[C@H]3[C@@H](C(N)=O)[C@@H]4C=C[C@H]3C4)n1)c2OC (single isomer, unassigned) [Example 1350] | > 10000 nM | < 100 nM | – | – | – |
| COCCN1CCc2ccc(Nc3ncc(Cl)c(N[C@@H]4CCCC[C@H]4NS(=O)(=O)C4CC4)n3)cc2CC1 [Example 454, Cyclopropanesulfonic acid ((1R,2R)-2-{5-chloro-2-[3-(2-methoxy-ethyl)-2,3,4,5-tetrahydro-1H-benzo[d]azepin-7-ylamino]-pyrimidin-4-ylamino}-cyclohexyl)-amide] | – | – | 1000 to 10000 nM | 100 to 1000 nM | – |
| CCN1CCCOc2cc(Nc3ncc(Cl)c(Nc4ccc(N5CCOCC5)cc4OC)n3)c(F)cc21 [Example 1688, 5-Chloro-N*2*-(9-ethyl-2-fluoro-6,7,8,9-tetrahydro-5-oxa-9-aza-benzocyclohepten-3-yl)-N*4*-(2-methoxy-4-morpholin-4-yl-phenyl)-pyrimidine-2,4-diamine] | – | – | – | – | IC50 [1, 7]: > 10000 nM; IC50 [2, 8]: 100 to 1000 nM |
| CNC(=O)c1ccccc1Nc1nc(Nc2ccc3c(c2)CN(CCOC)CCS3)ncc1Cl [Example 522, 2-{5-Chloro-2-[8-(2-methoxy-ethyl)-6,7,8,9-tetrahydro-5-thia-8-aza-benzocyclohepten-2-ylamino]-pyrimidin-4-ylamino}-N-methyl-benzamide] | – | – | – | – | IC50 [1, 9]: 100 to 1000 nM; IC50 [2, 10]: < 100 nM |
| CN1C(=O)CCCc2cc(Nc3ncc(Cl)c(Nc4ccccc4C(=O)NCCO)n3)ccc21 [Example 6, 2-[5-Chloro-2-(1-methyl-2-oxo-2,3,4,5-tetrahydro-1H-benzo[b]azepin-7-ylamino)-pyrimidin-4-ylamino]-N-(2-hydroxy-ethyl)-benzamide] | – | – | < 100 nM | < 100 nM | – |
| CCCCNC(=O)c1ccccc1Nc1nc(Nc2ccc3c(c2)CCN(CCOC)CC3)ncc1Cl [Example 1028, N-Butyl-2-{5-chloro-2-[3-(2-methoxy-ethyl)-2,3,4,5-tetrahydro-1H-benzo[d]azepin-7-ylamino]-pyrimidin-4-ylamino}-benzamide] | 100 to 1000 nM | < 100 nM | – | – | – |
| CNC(=O)c1cnn(C)c1Nc1nc(Nc2ccc3c(c2)CCOC(=O)N3C)ncc1Cl [Example 1776, 5-[5-Chloro-2-(5-methyl-6-oxo-5,6,8,9-tetrahydro-7-oxa-5-aza-benzocyclohepten-2-ylamino)-pyrimidin-4-ylamino]-1-methyl-1H-pyrazole-4-carboxylic acid methylamide] | – | – | – | – | IC50 [1, 7]: 100 to 1000 nM; IC50 [2, 8]: 1000 to 10000 nM |
| CCN1C(=O)CCC(C)(C)c2cc(Nc3ncc(Cl)c(Nc4c(Cl)cccc4C(=O)NC)n3)ccc21 [Example 389, 3-Chloro-2-[5-chloro-2-(1-ethyl-5,5-dimethyl-2-oxo-2,3,4,5-tetrahydro-1H-benzo[b]azepin-7-ylamino)-pyrimidin-4-ylamino]-N-methyl-benzamide] | – | – | 100 to 1000 nM | 100 to 1000 nM | – |
| CCN1C(=O)CCCc2cc(Nc3ncc(Cl)c(Nc4ccc(OC)cc4-n4cccn4)n3)c(OC)cc21 [Example 614, 7-[5-Chloro-4-(4-methoxy-2-pyrazol-1-yl-phenylamino)-pyrimidin-2-ylamino]-1-ethyl-8-methoxy-1,3,4,5-tetrahydro-benzo[b]azepin-2-one] | – | – | – | – | IC50 [1, 9]: > 10000 nM; IC50 [2, 10]: < 100 nM |
| CNC(=O)c1cccc(Cl)c1Nc1nc(Nc2ccc3c(c2)C2CCC(C3)N2CCOC)ncc1Cl (stereo not shown) [Example 91, 3-Chloro-2-{5-chloro-2-[12-(2-methoxy-ethyl)-12-aza-tricyclo[7.2.1.0*2,7*]dodeca-2(7),3,5-trien-4-ylamino]-pyrimidin-4-ylamino}-N-methyl-benzamide] | – | – | < 100 nM | 100 to 1000 nM | – |
| CC1(C)CCC(=O)Nc2ccc(Nc3ncc(Cl)c(Nc4cccc(-c5cccnc5)c4)n3)cc21 [Example 993, 7-[5-Chloro-4-(3-pyridin-3-yl-phenylamino)-pyrimidin-2-ylamino]-5,5-dimethyl-1,3,4,5-tetrahydro-benzo[b]azepin-2-one] | – | – | – | – | IC50 [1, 9]: 1000 to 10000 nM; IC50 [2, 10]: 100 to 1000 nM |
| CCN1CCN(CC(=O)OCCOC)C(=O)c2ccc(Nc3ncc(Cl)c(N[C@H]4[C@@H]5CC[C@@H](C5)[C@H]4C(N)=O)n3)cc21 [Example 1457, {8-[4-((1R,2S,3R,4S)-3-Carbamoyl-bicyclo[2.2.1]hept-2-ylamino)-5-chloro-pyrimidin-2-ylamino]-1-ethyl-5-oxo-1,2,3,5-tetrahydro-benzo[e][1,4]diazepin-4-yl}-acetic acid 2-methoxy-ethyl ester] | – | – | – | – | IC50 [1, 7]: 1000 to 10000 nM; IC50 [2, 8]: < 100 nM |
| CNC(=O)c1ccccc1Nc1nc(Nc2ccc3c(c2Cl)C2CCC(C3)N2C(C)C)ncc1Cl (stereo not shown) [Example 86, 2-[5-Chloro-2-(3-chloro-12-isopropyl-12-aza-tricyclo[7.2.1.0*2,7*]dodeca-2(7),3,5-trien-4-ylamino)-pyrimidin-4-ylamino]-N-methyl-benzamide] | – | – | 100 to 1000 nM | < 100 nM | – |

Continued, in another order:

| IC50 [1, 3] | IC50 [2, 4] | IC50 [1, 5] | IC50 [2, 6] | SMILES | also measured |
| --- | --- | --- | --- | --- | --- |
| 1000 to 10000 nM | < 100 nM | – | – | COc1cc2c(cc1Nc1ncc(Cl)c(Nc3ccccc3S(=O)(=O)C(C)C)n1)CCC(N1CCN(C)CC1)CC2 (stereo not shown) [Example 1100, 5-Chloro-N*2*-[3-methoxy-7-(4-methyl-piperazin-1-yl)-6,7,8,9-tetrahydro-5H-benzocyclohepten-2-yl]-N*4*-[2-(propane-2-sulfonyl)-phenyl]-pyrimidine-2,4-diamine] | – |
| – | – | > 10000 nM | < 100 nM | COc1cc2c(cc1Nc1ncc(Cl)c(Nc3ccc(N4CCOCC4)cc3OC)n1)CCN(C[C@H](O)C(F)(F)F)CC2 [Example 462, (S)-3-{7-[5-Chloro-4-(2-methoxy-4-morpholin-4-yl-phenylamino)-pyrimidin-2-ylamino]-8-methoxy-1,2,4,5-tetrahydro-benzo[d]azepin-3-yl}-1,1,1-trifluoro-propan-2-ol] | – |
| > 10000 nM | < 100 nM | – | – | CCN1CCc2cc(Nc3ncc(Cl)c(Nc4ccc(N5CCOCC5)cc4OC)n3)c(OC)cc2CC1 [Example 1129, 5-Chloro-N*2*-(3-ethyl-8-methoxy-2,3,4,5-tetrahydro-1H-benzo[d]azepin-7-yl)-N*4*-(2-methoxy-4-morpholin-4-yl-phenyl)-pyrimidine-2,4-diamine] | – |
| > 10000 nM | 1000 to 10000 nM | – | – | COc1cc2c(cc1Nc1ncc(Cl)c(Nc3cc(C(N)=O)ccc3OC)n1)CCN(C(=O)CN(C)C)CC2 [Example 1139, 3-{5-Chloro-2-[3-(2-dimethylamino-acetyl)-8-methoxy-2,3,4,5-tetrahydro-1H-benzo[d]azepin-7-ylamino]-pyrimidin-4-ylamino}-4-methoxy-benzamide] | – |
| – | – | 100 to 1000 nM | < 100 nM | CNS(=O)(=O)c1ccccc1Nc1nc(Nc2ccc3c(c2)CCN(CCOC)CC3)ncc1Cl [Example 35, 2-{5-Chloro-2-[3-(2-methoxy-ethyl)-2,3,4,5-tetrahydro-1H-benzo[d]azepin-7-ylamino]-pyrimidin-4-ylamino}-N-methyl-benzenesulfonamide] | – |
| > 10000 nM | 100 to 1000 nM | – | – | CNC(=O)CN1CCc2cc(Nc3ncc(Cl)c(Nc4cc(C(N)=O)ccc4OC)n3)c(OC)cc2CC1 [Example 1138, 3-[5-Chloro-2-(8-methoxy-3-methylcarbamoylmethyl-2,3,4,5-tetrahydro-1H-benzo[d]azepin-7-ylamino)-pyrimidin-4-ylamino]-4-methoxy-benzamide] | – |
